System: haloperidol induced catalepsy
Test: reversal of haloperidol induced catalepsy
Assay type: in vivo, Sprague-Dawley rats
Settings: rats, haloperidol 1.5 mg/kg i.p., compound 0.1-56.6 mg/kg oral, tested 30 minutes after compound; data in FIG. 5
Description: Animals. Male Sprague-Dawley rats weighing between 275 and 300 g (Harlan Laboratories, Indianapolis, Ind.) were used for the behavioral studies and were maintained in accordance with American Association for the Accreditation of Laboratory Animal Care guidelines under a 12-h light/dark cycle (lights on at 6 AM, lights off at 6 PM) with free access to food and water. The experimental procedures, which were performed during the light cycle, were approved by the Institutional Animal Care and Use Committee of Vanderbilt University and conformed to the guidelines established by the National Research Council Guide for the Care and Use of laboratory Animals. Rats were injected with haloperidol (1.5 mg/kg, i.p., dissolved in 8.5% lactic acid, pH=6) 60 minutes prior to the oral administration of Example 46 ((0.1-56.6 mg/kg) or vehicle (10% Tween 80). 30 minutes after compound administration all rats were tested for catalepsy. Catalepsy was assessed using a horizontal bar placed 6 cm from the testing surface. The forepaws of each rat were placed gently on the bar with the body positioned at an angle of ˜45° to the testing surface. The latency in seconds required for the rat to remove one or both forepaws from the bar was manually measured with a cutoff of 30 seconds.

## FC(F)(F)c1nccc2cc(Nc3n[nH]c4ncccc34)ccc12 [Example 46, N-(1H-pyrazolo[3,4-b]pyridin-3-yl)-1-(trifluoromethyl) isoquinolin-6-amine]
  reversal of haloperidol induced catalepsy: reversal of haloperidol induced catalepsy

Source: patent US10227343B2, “Isoquiniline and napthalene-substituted compounds as mGluR4 allosteric potentiators, compositions, and methods of treating neurological dysfunction” (Vanderbilt University, priority 2015, dated 2019)
